In the NIST ThermoML archive (doi:10.1016/j.jct.2017.07.011):
Numbers after ± are expanded uncertainties.

Details: 100 kPa, Liquid, Vibrating tube method

SMILES | mass density (273.65 K) [kg/m3] | mass density (274.15 K) [kg/m3] | mass density (274.65 K) [kg/m3] | mass density (275.15 K) [kg/m3] | mass density (275.65 K) [kg/m3] | mass density (276.15 K) [kg/m3] | mass density (276.65 K) [kg/m3] | mass density (277.15 K) [kg/m3] | mass density (277.65 K) [kg/m3] | mass density (278.15 K) [kg/m3] | mass density (278.65 K) [kg/m3] | mass density (279.15 K) [kg/m3] | mass density (279.65 K) [kg/m3] | mass density (280.15 K) [kg/m3] | mass density (280.65 K) [kg/m3] | mass density (281.15 K) [kg/m3] | mass density (281.65 K) [kg/m3] | mass density (282.15 K) [kg/m3]
CCC(O)CC [3-pentanol] | 835.7 ± 2.1 | 835.3 ± 2.1 | 834.9 ± 2.1 | 834.5 ± 2.1 | 834.1 ± 2.1 | 833.7 ± 2.1 | 833.3 ± 2.1 | 832.9 ± 2.1 | 832.5 ± 2.1 | 832.1 ± 2.1 | 831.7 ± 2.1 | 831.3 ± 2.1 | 830.9 ± 2.1 | 830.5 ± 2.1 | 830.1 ± 2.1 | 829.7 ± 2.1 | 829.3 ± 2.1 | 828.9 ± 2.1
CCC(C)(C)O [2-methylbutan-2-ol] | 826.7 ± 2 | 826.3 ± 2 | 825.8 ± 2 | 825.4 ± 2 | 824.9 ± 2 | 824.5 ± 2 | 824 ± 2 | 823.5 ± 2 | 823.1 ± 2 | 822.6 ± 2 | 822.2 ± 2 | 821.7 ± 2 | 821.3 ± 2 | 820.8 ± 2 | 820.3 ± 2 | 819.9 ± 2 | 819.4 ± 2 | 819 ± 2
CCCC(C)O (centres undefined) [pentan-2-ol] | 824 ± 2.1 | 823.6 ± 2.1 | 823.2 ± 2.1 | 822.8 ± 2.1 | 822.5 ± 2.1 | 822.1 ± 2.1 | 821.7 ± 2.1 | 821.3 ± 2.1 | 820.9 ± 2.1 | 820.6 ± 2.1 | 820.2 ± 2.1 | 819.8 ± 2.1 | 819.4 ± 2.1 | 819.1 ± 2.1 | 818.7 ± 2.1 | 818.3 ± 2.1 | 817.9 ± 2.1 | 817.5 ± 2.1
